Holding throughout (assay): DTP human tumour cell line panel, 48 h
Assay [1] concerns XF 498 CNS.
In assay [2] the test system is RXF-631 renal.
Assay [3] has as its system DLD-1 colon.
Assay [4] has as its system M19-MEL melanoma.
Assay [5] concerns KM20L2 colon.
In assay [6] the test system is DMS 114 small cell lung.
The subject of assay [7] is HOP-18 NSCLC.
Assay [8] has as its system MDA-N.

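Protocol summary: plate cells (96-well), add compound at 5 concentrations, incubate 48 h, interpolate endpoints linearly. GI50 marks 50% less growth. The concentration for full growth arrest is given as TGI.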

What is called TGI is the concentration at which net growth stops. Low values mean greater sensitivity of the cells, high ones lower sensitivity of the cells. In the case of `O=C(O)C(CS)NCc1c2ccccc2nc2ccccc12` (stereo unspecified), the total growth inhibition concentration (TGI) in assay [1] is 53.7 µM; in assay [2], greater than 100 µM; in assay [3] it was greater than 100 µM; in assay [4], 89.4 µM; in assay [5] it was greater than 100 µM.
With `COc1ccc(COC2CC(OC)OC(C)C2OC(=O)c2ccccc2)cc1` (stereo unspecified), the concentration for total growth inhibition (TGI) in assay [1] is 49.4 µM; in assay [2], greater than 100 µM; in assay [3] it was greater than 91.8 µM; in assay [6], 81.5 µM; in assay [4], greater than 91.1 µM; in assay [7], greater than 100 µM. This compound also gave a TGI in assay [5] of 32.9 µM.
For `O=C1/C(=N\O)S(=O)(=O)c2ccccc21`, the concentration for total growth inhibition (TGI) in assay [2], in assay [3], in assay [6], in assay [4], in assay [7] and in assay [5] was greater than 100 µM in each case.
For orientation: GI50 means the concentration at which growth is held to half of that of the control. Regarding `CC(=O)[CH-]C(=O)c1ccccc1.CC(=O)[CH-]C(=O)c1ccccc1.CC(=O)[CH-]C(=O)c1ccccc1.[In+3]`, the GI50 in assay [3] was 24.4 µM; in assay [4], 28.8 µM; in assay [7], 43.5 µM; in assay [5], 39.4 µM. Moreover, the total growth inhibition concentration (TGI) in assay [3] is greater than 100 µM; in assay [4] it was greater than 100 µM; in assay [7], 77.1 µM; in assay [5] it was greater than 100 µM.
Take `O=c1c(O)c(-c2ccc(O)c(O)c2)oc2cc(O)cc(O)c12`: the TGI in assay [1], in assay [2], in assay [3], in assay [6], in assay [4] and in assay [7] was greater than 100 µM throughout. In addition, in assay [5], the TGI was greater than 100 µM.
Turning to `C[C@]12CCC(=O)CC1CCCC2=O` (stereo partly specified), the total growth inhibition concentration (TGI) in assay [1], in assay [2], in assay [3], in assay [6] and in assay [4] was greater than 100 µM each time.
With `O=C(NC(=Nc1ccccc1)SCCSC(=Nc1ccccc1)NC(=O)c1cccs1)c1cccs1`, the TGI in assay [1], in assay [3], in assay [6], in assay [4] and in assay [5] was greater than 100 µM throughout.
With `CC1(C)CC2CC(CC(C)(C)C2=O)C1=O`, the TGI in assay [1], in assay [2], in assay [3], in assay [6], in assay [4] and in assay [7] was greater than 100 µM in each case. The same compound gave a TGI in assay [5] greater than 100 µM.
Take `COc1cccc(NC(=O)CC(=O)N2N=C(N3c4ccccc4Sc4ccccc43)CC2c2ccccc2)c1` (stereo unspecified): the TGI in assay [1] was greater than 100 µM; in assay [3] it was greater than 100 µM; in assay [6], greater than 100 µM; in assay [4] it was greater than 100 µM; in assay [7], 62.2 µM; in assay [5], greater than 100 µM.
With `COc1cccc(-c2cc3c4c(nc5ccccc53)C(=O)c3cccnc3-c4n2)c1`, in assay [8], the GI50 was 1.74 µM and the TGI came out at 4.01 µM.
For the compound `CCOC(=O)/C(O)=C(/C(=O)OC)c1ccc(Cl)cc1`, the TGI in assay [1], in assay [2], in assay [3], in assay [6], in assay [4] and in assay [5] was greater than 100 µM in each case.
On to `COc1ccc(C2=C(c3ccc(OC)c(OC)c3)C(=O)N3CCCC3C2)cc1` (stereo unspecified), for which, in assay [8], the GI50 is 44.6 µM and the concentration for total growth inhibition (TGI) was greater than 100 µM.
On to `CN(C)C(=O)c1ccc([N+](=O)[O-])cc1`, for which the TGI in assay [3], in assay [6], in assay [4] and in assay [5] was greater than 100 µM in each case.
Compound `O=[N+]([O-])c1ccc(N2CCC(CCCC3CCN(c4ccc([N+](=O)[O-])cc4[N+](=O)[O-])CC3)CC2)c([N+](=O)[O-])c1` came in with a total growth inhibition concentration (TGI) in assay [8] of 30.1 µM.
Still for that read-out and setting: then `OCCn1cnc2c(SCc3ccccc3)ncnc21`, with greater than 100 µM; and `O=[N+]([O-])c1cc(Cl)cnc1Br`, with 12.4 µM.
With `CNC(=O)OCc1c2ccncc2c(C)c2c1[nH]c1ccc(OC)cc12`, the total growth inhibition concentration (TGI) is greater than 100 µM in assay [1]; greater than 100 µM in assay [2]; 1.32 µM in assay [6]; 1.68 µM in assay [4]; 0.738 µM in assay [7]; 0.799 µM in assay [5].
Consider `CCCN(CCC)C(=O)C(=O)c1c(N)[nH]n(-c2ccccc2)c1=O`, for which the concentration for total growth inhibition (TGI) in assay [1], in assay [2], in assay [3], in assay [6], in assay [4] and in assay [7] was greater than 100 µM each time. Also, the total growth inhibition concentration (TGI) in assay [5] was greater than 100 µM.
Turning to `O=C(N/C(=C\c1ccc(/C=C(\NC(=O)c2ccccc2)c2nc3ccccc3[nH]2)cc1)c1nc2ccccc2[nH]1)c1ccccc1`, the TGI in assay [1], in assay [3], in assay [6], in assay [4], in assay [7] and in assay [5] was greater than 100 µM throughout.
With `O=C(O)c1nc(-c2ccc(Cl)c(Cl)c2)nc2ccc(Cl)cc12`, the concentration for total growth inhibition (TGI) in assay [3], in assay [4] and in assay [5] was greater than 100 µM throughout.
`CN1CCc2[nH]nc(-c3n[nH]c4c3CN(C)CC4)c2C1` came in with a TGI in assay [8] greater than 100 µM.

The values are drawn from PubChem BioAssay (NCI).
